# Experimental data as given in ChEMBL document CHEMBL1201862, “PubChem BioAssay data set” (2004).
# Activity calls are given as the source filed them.
# Columns and labels:
# [1] = target: Tyrosine-protein phosphatase non-receptor type 7 (Homo sapiens, UniProt P35236); format: functional
# [2] = target: T1, Calpain-2 catalytic subunit (Sus scrofa, UniProt P43367); assay: m-calpain protease blockers, concentration series – biochemical, fluorogenic peptide substrate, dose response (AID 1420); format: functional
# T1 sequence (P43367 whole entry): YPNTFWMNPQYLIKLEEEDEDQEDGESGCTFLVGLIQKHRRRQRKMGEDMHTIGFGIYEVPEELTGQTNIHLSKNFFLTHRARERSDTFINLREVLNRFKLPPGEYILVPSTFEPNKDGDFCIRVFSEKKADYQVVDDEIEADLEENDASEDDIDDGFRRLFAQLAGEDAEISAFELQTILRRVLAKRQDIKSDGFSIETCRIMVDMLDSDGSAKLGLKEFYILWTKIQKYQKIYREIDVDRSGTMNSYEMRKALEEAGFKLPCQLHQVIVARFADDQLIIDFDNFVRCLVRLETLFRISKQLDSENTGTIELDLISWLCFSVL
# [3] = target: T2, Tyrosine-protein phosphatase non-receptor type 22 (Homo sapiens, UniProt Q9Y2R2); format: functional
# [4] = target: T2, Tyrosine-protein phosphatase non-receptor type 22; format: functional; remark: listed apart in the source
# [5] = Luminescence Cell-Based Dose Response HTS to Identify Inhibitors of Luciferase Translation or Activity in H4-C Neuroglioblastoma Cells. [Related pubchem assays: 1813 (Primary HTS), 1827 (Project Summary)]; format: functional
# [6] = Luminescence Cell-Based Dose Response HTS to Identify Activators of Luciferase Translation or Activity in H4-C Neuroglioblastoma Cells. [Related pubchem assays: 1829 (Project Summary), 1814 (Primary HTS)]; format: functional
# [7] = Luminescence Cell-Based Dose Response HTS to Identify Activators of 5'UTR Stem-Loop Driven Prion Protein mRNA Translation in H4-C Neuroglioblastoma Cells. [Related pubchem assays: 1829 (Project Summary), 1814 (Primary HTS)]; format: functional
# [8] = Luminescence Cell-Based Dose HTS Response to Identify Inhibitors of 5'UTR Stem-Loop Driven Prion Protein mRNA Translation in H4-C Neuroglioblastoma Cells. [Related pubchem assays (depositor defined):AID1814, AID1827]; format: functional
# [9] = test system: BJ; assay: BJ-TERT fibroblast viability loss – cell-based, RAS-independent, luminescence, dose response (AID 1933); format: functional; settings: Homo sapiens
# [10] = Luminescence Cell-Based Dose Response HTS to Identify Inhibitors of 5'UTR Stem-Loop Driven Prion Protein mRNA Translation in H4 Neuroglioblastoma Cells. [Related pubchem assays: 1827 (Project Summary), 1813 (Primary HTS)]; format: functional
# [11] = alpha-synuclein stem-loop luciferase translation blockers – H4 neuroglioma cells, luminescence, confirmation (AID 1988); format: functional, cell-based
# [12] = test system: BJ; assay: cells; format: functional, cell-based; settings: Homo sapiens
# [13] = Luminescence Cell-Based Dose Confirmation HTS to Identify Inhibitors of 5'UTR Stem-Loop Driven Alpha-Synuclein mRNA Translation in H4 Neuroglioblastoma Cells. [Related pubchem assays: 1827 (Project Summary), 1813 (Primary HTS)]; format: functional
# [14] = test system: BJ; assay: BJ-TERT-LT-ST fibroblast viability loss – cell-based, RAS-independent, luminescence, dose response (AID 1935); format: functional; settings: Homo sapiens;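 further: BJ fibroblasts immortalized with TERT plus LT and ST oncogenes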
# [15] = DRD fibroblast viability loss – cell-based, non-viral oncogenic, luminescence, dose response (AID 1934); format: functional; settings: Homo sapiens
# [16] = test system: BJ; assay: growth inhibition of engineered Ras-driven BJ cells – cell-based, alamar blue fluorescence, cherrypicked samples, dose response (AID 2631); format: functional; settings: Homo sapiens;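 further: confirmatory dose-response assay in RAS-dependent BJ fibroblasts engineered with TERT, LT and ST, with cytotoxicity read by fluorescence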
# [17] = cells; format: functional, cell-based
# [18] = target: T3, Nuclear receptor subfamily 0 group B member 1 (Homo sapiens, UniProt P51843); format: functional, cell-based;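 further: HEK293T cells transfected with SF-1 and DAX-1 plus StAR promoter luciferase reporter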
# T3 sequence (P51843 whole entry): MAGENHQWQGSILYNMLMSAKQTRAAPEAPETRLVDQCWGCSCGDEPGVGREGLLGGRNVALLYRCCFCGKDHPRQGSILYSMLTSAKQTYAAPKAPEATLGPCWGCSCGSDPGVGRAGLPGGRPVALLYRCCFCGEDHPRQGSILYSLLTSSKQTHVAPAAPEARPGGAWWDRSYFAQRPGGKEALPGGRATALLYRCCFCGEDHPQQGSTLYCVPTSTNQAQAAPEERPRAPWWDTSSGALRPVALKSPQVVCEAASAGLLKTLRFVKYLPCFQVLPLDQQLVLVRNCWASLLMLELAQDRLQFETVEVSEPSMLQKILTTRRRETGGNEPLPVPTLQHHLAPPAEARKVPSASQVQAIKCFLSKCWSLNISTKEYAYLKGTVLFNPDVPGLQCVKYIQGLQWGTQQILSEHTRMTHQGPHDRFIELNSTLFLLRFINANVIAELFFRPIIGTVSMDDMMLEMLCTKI
# [19] = target: T4, G-protein coupled receptor 55 (Homo sapiens, UniProt Q9Y2T6); assay: inhibition of LPI-stimulated GPR55 beta-arrestin translocation – imaging, U2OS, beta-arrestin-GFP, LPI agonist, primary screen (AID 2013); format: functional;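 further: antagonist potency measured as reduced agonist-driven arrestin aggregation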
# [20] = target: Mucolipin-3 (Homo sapiens, UniProt Q8TDD5); assay: Dose response cell-based high-throughput screening assay for agonists of the transient receptor potential channel ML3 (TRPML3). [Related pubchem assays: 1526, 1424, 1448 ]; format: functional
# [21] = target: Ion channel NompC (Danio rerio, UniProt Q7T1G6); assay: Fluorescence counterscreen assay for TRPML3 agonists: dose response cell-based high-throughput screening assay to identify agonists of the transient receptor potential channel N1 (TRPN1). [Related pubchem assays: 1526, 1424, 1448 ]; format: functional
# [22] = target: T5, Cannabinoid receptor 1 (Homo sapiens, UniProt P21554); assay: SAR analysis of antagonists of the Cannabinoid Receptor 1 using an Image-Based Assay - Set 2. [Related pubchem assays (depositor defined):AID2013, AID2026]; format: functional
# [23] = target: T6, G-protein coupled receptor 35 (Homo sapiens, UniProt Q9HC97); assay: SAR analysis of Agonists of the GPR35 Receptor using an Image-Based Assay - Set 2. [Related pubchem assays (depositor defined):AID2013, AID2026]; format: functional
# [24] = target: T7, Cannabinoid receptor 2 (Homo sapiens, UniProt P34972); assay: SAR analysis of antagonists of the Cannabinoid Receptor 2 using an Image-Based Assay. [Related pubchem assays (depositor defined):AID2013, AID2026]; format: functional
# [25] = target: T5, Cannabinoid receptor 1; assay: SAR analysis of agonists of the Cannabinoid Receptor 1 using an Image-Based Assay - Set 2. [Related pubchem assays (depositor defined):AID2013, AID2026]; format: functional
# [26] = target: T6, G-protein coupled receptor 35; assay: SAR analysis of Antagonists of the GPR35 Receptor using an Image-Based Assay - Set 3. [Related pubchem assays (depositor defined):AID2013, AID2026]; format: functional
# [27] = target: T4, G-protein coupled receptor 55; assay: blockade of LPI-induced GPR55 arrestin translocation – imaging, U2OS, beta-arrestin-GFP, LPI agonist, set 2, SAR follow-up (AID 2820); format: functional
# [28] = target: T7, Cannabinoid receptor 2; assay: SAR analysis of agonists of the Cannabinoid Receptor 2 using an Image-Based Assay. [Related pubchem assays (depositor defined):AID2013, AID2026]; format: functional
# T2 sequence (Q9Y2R2 whole entry): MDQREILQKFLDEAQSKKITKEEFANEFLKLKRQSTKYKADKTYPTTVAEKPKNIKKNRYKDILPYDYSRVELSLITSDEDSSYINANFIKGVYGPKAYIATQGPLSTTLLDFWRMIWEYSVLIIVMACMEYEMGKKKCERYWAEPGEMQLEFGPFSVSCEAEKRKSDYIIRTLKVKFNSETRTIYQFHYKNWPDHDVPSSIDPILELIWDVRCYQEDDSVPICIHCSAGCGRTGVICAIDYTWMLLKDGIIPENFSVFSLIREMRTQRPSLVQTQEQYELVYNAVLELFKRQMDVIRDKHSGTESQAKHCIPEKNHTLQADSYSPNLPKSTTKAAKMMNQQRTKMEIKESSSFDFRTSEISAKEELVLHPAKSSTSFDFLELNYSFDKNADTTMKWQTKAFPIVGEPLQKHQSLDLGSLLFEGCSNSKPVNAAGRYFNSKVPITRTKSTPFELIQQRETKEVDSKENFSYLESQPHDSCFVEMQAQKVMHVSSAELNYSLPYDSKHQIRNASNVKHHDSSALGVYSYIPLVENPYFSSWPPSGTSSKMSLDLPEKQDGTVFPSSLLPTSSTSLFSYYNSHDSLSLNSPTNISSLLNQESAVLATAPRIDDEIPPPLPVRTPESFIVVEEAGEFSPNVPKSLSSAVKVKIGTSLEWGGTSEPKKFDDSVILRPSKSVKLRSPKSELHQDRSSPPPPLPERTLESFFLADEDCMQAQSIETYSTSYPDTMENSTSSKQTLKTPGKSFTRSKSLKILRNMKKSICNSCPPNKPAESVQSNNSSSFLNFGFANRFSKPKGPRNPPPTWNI
# T4 sequence (Q9Y2T6 whole entry): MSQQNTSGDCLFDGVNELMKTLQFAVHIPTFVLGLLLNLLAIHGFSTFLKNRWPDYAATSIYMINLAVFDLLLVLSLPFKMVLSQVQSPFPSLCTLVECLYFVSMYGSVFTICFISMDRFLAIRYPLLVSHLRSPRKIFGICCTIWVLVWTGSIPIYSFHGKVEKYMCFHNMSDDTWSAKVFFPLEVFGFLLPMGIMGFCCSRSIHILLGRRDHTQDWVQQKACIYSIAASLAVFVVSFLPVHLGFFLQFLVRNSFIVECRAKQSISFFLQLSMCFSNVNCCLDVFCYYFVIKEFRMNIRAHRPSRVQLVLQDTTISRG
# T6 sequence (Q9HC97 whole entry): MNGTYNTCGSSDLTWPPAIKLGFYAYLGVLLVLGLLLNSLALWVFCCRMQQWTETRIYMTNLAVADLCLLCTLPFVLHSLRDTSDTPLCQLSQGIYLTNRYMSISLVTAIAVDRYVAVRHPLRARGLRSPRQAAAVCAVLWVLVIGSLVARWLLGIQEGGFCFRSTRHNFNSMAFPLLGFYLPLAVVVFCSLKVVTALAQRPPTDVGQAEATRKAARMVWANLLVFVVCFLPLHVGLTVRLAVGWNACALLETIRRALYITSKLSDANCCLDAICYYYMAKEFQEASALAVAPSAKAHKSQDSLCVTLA
# T7 sequence (P34972 whole entry): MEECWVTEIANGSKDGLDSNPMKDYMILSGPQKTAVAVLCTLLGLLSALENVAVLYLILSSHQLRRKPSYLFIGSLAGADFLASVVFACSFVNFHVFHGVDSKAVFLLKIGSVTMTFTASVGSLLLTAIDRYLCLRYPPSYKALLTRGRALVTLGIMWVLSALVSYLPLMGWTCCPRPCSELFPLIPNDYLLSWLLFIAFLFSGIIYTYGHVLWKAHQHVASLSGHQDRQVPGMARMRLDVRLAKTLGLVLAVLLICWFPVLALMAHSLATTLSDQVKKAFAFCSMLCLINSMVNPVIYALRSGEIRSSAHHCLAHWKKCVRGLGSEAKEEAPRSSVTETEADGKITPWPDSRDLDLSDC
# T5 sequence (P21554 whole entry): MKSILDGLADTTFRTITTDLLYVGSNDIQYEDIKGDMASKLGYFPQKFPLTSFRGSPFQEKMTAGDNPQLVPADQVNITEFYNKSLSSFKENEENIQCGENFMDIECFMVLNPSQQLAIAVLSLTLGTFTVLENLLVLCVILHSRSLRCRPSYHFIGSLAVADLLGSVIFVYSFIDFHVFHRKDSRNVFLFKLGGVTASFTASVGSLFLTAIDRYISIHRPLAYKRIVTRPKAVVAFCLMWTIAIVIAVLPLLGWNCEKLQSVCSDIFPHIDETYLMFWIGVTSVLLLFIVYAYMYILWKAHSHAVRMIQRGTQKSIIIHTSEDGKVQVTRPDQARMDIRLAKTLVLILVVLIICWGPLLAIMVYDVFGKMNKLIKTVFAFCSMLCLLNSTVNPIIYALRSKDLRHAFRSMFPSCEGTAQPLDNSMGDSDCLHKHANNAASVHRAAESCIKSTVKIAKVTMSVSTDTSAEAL
# Chain of Ion channel NompC (Q7T1G6 whole entry): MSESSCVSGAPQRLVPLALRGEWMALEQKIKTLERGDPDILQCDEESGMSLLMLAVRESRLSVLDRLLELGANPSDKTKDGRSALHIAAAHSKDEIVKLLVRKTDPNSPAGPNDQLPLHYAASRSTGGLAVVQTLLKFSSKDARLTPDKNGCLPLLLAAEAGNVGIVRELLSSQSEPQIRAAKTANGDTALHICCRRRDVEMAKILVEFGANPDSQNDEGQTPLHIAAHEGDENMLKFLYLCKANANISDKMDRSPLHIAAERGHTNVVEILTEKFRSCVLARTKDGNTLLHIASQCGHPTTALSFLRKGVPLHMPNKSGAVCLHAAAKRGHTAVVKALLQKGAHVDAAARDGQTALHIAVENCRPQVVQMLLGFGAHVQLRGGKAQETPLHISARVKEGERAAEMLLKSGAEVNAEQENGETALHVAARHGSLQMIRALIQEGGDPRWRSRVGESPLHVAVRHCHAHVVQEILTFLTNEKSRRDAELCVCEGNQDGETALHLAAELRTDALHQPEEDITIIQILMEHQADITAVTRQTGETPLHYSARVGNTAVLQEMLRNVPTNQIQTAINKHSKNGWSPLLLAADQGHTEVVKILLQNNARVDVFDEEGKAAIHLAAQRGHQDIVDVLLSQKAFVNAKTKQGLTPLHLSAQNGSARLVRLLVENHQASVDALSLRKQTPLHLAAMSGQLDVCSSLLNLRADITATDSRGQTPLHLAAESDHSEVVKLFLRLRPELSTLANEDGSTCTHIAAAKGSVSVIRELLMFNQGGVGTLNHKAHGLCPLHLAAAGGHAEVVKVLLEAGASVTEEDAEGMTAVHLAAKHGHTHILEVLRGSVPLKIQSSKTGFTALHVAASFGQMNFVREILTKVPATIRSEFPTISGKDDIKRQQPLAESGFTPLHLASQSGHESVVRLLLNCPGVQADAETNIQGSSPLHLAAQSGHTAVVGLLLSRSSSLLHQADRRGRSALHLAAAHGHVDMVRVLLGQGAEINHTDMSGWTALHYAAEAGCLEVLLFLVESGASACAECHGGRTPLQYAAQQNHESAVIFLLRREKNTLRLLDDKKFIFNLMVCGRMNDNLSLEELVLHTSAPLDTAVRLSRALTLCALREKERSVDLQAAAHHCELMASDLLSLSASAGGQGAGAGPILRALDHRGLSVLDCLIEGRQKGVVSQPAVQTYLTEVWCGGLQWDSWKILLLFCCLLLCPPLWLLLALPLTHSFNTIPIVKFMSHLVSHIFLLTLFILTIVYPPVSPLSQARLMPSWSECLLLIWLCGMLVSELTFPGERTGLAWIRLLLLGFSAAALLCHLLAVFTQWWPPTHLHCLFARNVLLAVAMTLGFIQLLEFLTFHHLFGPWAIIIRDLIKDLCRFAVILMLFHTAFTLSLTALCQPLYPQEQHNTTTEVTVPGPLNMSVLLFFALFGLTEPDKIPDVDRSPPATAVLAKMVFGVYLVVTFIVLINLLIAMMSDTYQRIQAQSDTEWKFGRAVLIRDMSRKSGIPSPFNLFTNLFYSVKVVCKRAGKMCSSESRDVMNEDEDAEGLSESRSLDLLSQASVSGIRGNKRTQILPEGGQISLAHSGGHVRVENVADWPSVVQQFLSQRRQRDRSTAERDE
# Chain of Mucolipin-3 (Q8TDD5 whole entry): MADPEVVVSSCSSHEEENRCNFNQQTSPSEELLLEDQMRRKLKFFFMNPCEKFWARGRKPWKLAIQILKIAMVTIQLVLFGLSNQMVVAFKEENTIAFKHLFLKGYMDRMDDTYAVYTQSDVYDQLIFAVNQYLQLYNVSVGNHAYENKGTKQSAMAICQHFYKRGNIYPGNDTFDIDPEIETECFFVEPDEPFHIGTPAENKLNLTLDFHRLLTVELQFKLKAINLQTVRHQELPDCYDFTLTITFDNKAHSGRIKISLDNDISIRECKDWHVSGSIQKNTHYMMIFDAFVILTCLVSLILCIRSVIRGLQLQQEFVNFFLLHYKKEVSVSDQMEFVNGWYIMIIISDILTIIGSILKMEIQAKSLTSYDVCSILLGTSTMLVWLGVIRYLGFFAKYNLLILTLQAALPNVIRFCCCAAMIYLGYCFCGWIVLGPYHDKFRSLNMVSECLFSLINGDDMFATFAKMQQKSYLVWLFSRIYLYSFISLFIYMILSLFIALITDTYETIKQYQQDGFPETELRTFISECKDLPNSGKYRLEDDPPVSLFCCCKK
# Chain of Tyrosine-protein phosphatase non-receptor type 7 (P35236 whole entry): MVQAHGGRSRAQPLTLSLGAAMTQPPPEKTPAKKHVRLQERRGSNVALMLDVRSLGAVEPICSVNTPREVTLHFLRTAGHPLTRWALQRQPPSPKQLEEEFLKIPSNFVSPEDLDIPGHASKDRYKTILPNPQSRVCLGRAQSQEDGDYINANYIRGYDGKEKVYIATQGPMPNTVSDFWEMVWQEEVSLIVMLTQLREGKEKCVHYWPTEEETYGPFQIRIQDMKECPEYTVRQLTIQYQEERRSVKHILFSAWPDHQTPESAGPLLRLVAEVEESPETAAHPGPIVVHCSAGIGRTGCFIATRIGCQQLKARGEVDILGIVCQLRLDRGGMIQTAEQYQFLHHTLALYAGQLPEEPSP
structure (smiles),measurement,setting,value
O=C(Nc1ccc(Cl)cc1)c1ccc(OC2CSC2)cc1,IC50,[1],> 79.4 µM (inactive)
same,IC50,[2],16.7 µM (not active)
same,IC50,[3],> 79.4 µM (inactive)
same,IC50,[4],> 79.4 µM (inactive)
CCc1ccc(CNC(=O)Cc2ccc(NC(=O)C3=C(C)OCCS3)cc2)cc1,EC50,[5],51.1 µM (active)
same,EC50,[6],51.1 µM (inconclusive)
same,EC50,[7],0.592 µM (inconclusive)
same,EC50,[8],0.592 µM (active)
same,EC50,[9],7.66 µM (inconclusive)
same,EC50,[10],104 µM (active)
same,EC50,[11],0.899 µM (active)
same,EC50,[12],23.3 µM (active)
same,EC50,[13],> 195 µM (not active)
same,EC50,[14],3.01 µM (active)
same,EC50,[15],10.7 µM (inconclusive)
same,EC50,[16],0.379 µM (active)
same,IC50,[17],> 67.5 µM (inactive)
same,IC50,[18],> 67.5 µM (inactive)
COc1ccc(S(=O)(=O)Nc2ccc(C)cc2)cc1N(C)S(=O)(=O)c1ccc(Cl)cc1,IC50,[19],1.8 µM (active)
same,EC50,[20],6.67 µM (active)
same,EC50,[21],> 29.9 µM (not active)
same,IC50,[22],5.95 µM (active)
same,EC50,[23],> 32 µM (inactive)
same,IC50,[24],> 32 µM (inactive)
same,EC50,[25],> 32 µM (inactive)
same,IC50,[26],> 32 µM (inactive)
same,IC50,[27],0.992 µM (active)
same,EC50,[28],> 32 µM (inactive)
